# Reference: US7445765B2, “Radiopharmaceutical for diagnostic imaging containing a technetium-99m nitride heterocomplex” (Nihon Medi-Physics Co., Ltd., priority 2000, dated 2008)
# What was measured:
# [1] = Stability: ligand exchange reaction with cysteine or glutathione; assay type: physicochemical; details: phosphate buffer pH 7.4, 37° C., up to 2 hours, TLC
# Description: The stability of the ^99mTc(N) heterocomplexes obtained using PNP3 as a bisphosphinoamine compound in Example 1 was confirmed by ligand exchange reaction with cysteine or glutathione.
# 250.0 μL of phosphate buffer solution (0.20 M, pH=7.4), 100 μL of water and 100 μL of each of the ^99mTc(N) heterocomplexes purified were mixed with 50 μL of each of cysteine solutions having different concentrations of 10 mM and 1.0 mM, and the resulting mixture was placed in a polypropylene test tube and incubated in a thermostat at 37° C. A blank solution was obtained by mixing an equal volume of water without addition of cysteine. Aliquots of the resulting solutions were withdrawn at 15 min, 30 min, 60 min and 2 hours after the start of the incubation, and analyzed by TLC. The same experiment as above was carried out except for using glutathione in place of cysteine. All the ^99mTc(N) heterocomplex samples were found stable against transchelation by cystein or glutathione.
# [2] = Biodistribution of the 99mTc(N) heterocomplexes in rats (organ uptake, heart accumulation, heart/lung and heart/liver ratios); assay type: in vivo, female Sprague-Dawley rats
# Outline: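 Female Sprague-Dawley rats (200–250 g, n=3), ketamine/xylazine anaesthesia, got 300–370 kBq of each purified heterocomplex in pH 7.4 phosphate buffer (10% ethanol) via the jugular vein. They were killed at several post-injection times. Heart blood and washed, weighed organs were gamma-counted, taking whole blood as 6.5% of body weight.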
# [3] = Measurement of Log k′ (partition ratio) by HPLC, PNP3 heterocomplexes; assay type: physicochemical; details: HPLC C18, methanol/phosphate buffer (0.02M, pH 7.4), 1.0 mL/min; extrapolated to 0% organic solvent
# Description: For the various ^99mTc(N) heterocomplexes synthesized using PNP3 as a bisphosphinoamine compound in Example 1, Log k′ values were determined at various compositions of a mobile phase for HPLC. As the mobile phase, mixtures of methanol and phosphate buffer (0.02M, pH=7.4) were used at a flow rate of 1.0 mL/min. For each sample, the retention time was measured at a minimum of three different methanol concentrations in the mobile phase. The Log k′ values at 0% organic solvent (Log k′0) were extrapolated from the linear part of the curve Log k′=a+bC, where C is the methanol concentration, and Log k′ is Log (tR-to)/to wherein tR is HPLC retension time (min). The column void time (t0) was regarded as being equal to the elution time of pertechnetic acid.
smiles,measurement,setting,value
COCCC[P]1(CCCOC)CCN(CCOC)CC[P](CCCOC)(CCCOC)[99Tc+]12(#[N])[S]C(N(CCOC)CCOC)=[S]2 [[^99mTc(N) (PNP3) (DPODC)]^+],Stability,[1],Stable
same,Biodistribution in rats: Adrenal glands,[2]; 0 min post injection,1.65 ± 0.22 % ID/g
same,Biodistribution in rats: Blood,[2]; 0 min post injection,1.36 ± 0.02 % ID/g
same,Biodistribution in rats: Brain,[2]; 0 min post injection,0.20 ± 0.02 % ID/g
same,Biodistribution in rats: Heart,[2]; 0 min post injection,3.08 ± 0.31 % ID/g
same,Biodistribution in rats: Intestine,[2]; 0 min post injection,3.25 ± 0.60 % ID/g
same,Biodistribution in rats: Kidneys,[2]; 0 min post injection,6.36 ± 0.13 % ID/g
same,Biodistribution in rats: Liver,[2]; 0 min post injection,3.48 ± 0.24 % ID/g
same,Biodistribution in rats: Lungs,[2]; 0 min post injection,1.45 ± 0.04 % ID/g
same,Biodistribution in rats: Muscle,[2]; 0 min post injection,0.27 ± 0.02 % ID/g
same,Biodistribution in rats: Spleen,[2]; 0 min post injection,1.23 ± 0.01 % ID/g
same,Biodistribution in rats: Submaxillary glands,[2]; 0 min post injection,2.27 ± 0.20 % ID/g
same,Biodistribution in rats: Adrenal glands,[2]; 2 min post injection,0.98 ± 0.12 % ID/g
same,Biodistribution in rats: Blood,[2]; 2 min post injection,0.30 ± 0.09 % ID/g
same,Biodistribution in rats: Brain,[2]; 2 min post injection,0.02 ± 0.00 % ID/g
same,Biodistribution in rats: Heart,[2]; 2 min post injection,2.06 ± 0.13 % ID/g
same,Biodistribution in rats: Intestine,[2]; 2 min post injection,4.30 ± 1.74 % ID/g
same,Biodistribution in rats: Kidneys,[2]; 2 min post injection,8.21 ± 0.62 % ID/g
same,Biodistribution in rats: Liver,[2]; 2 min post injection,3.71 ± 0.36 % ID/g
same,Biodistribution in rats: Lungs,[2]; 2 min post injection,0.65 ± 0.06 % ID/g
same,Biodistribution in rats: Muscle,[2]; 2 min post injection,0.25 ± 0.04 % ID/g
same,Biodistribution in rats: Spleen,[2]; 2 min post injection,0.51 ± 0.04 % ID/g
same,Biodistribution in rats: Submaxillary glands,[2]; 2 min post injection,1.22 ± 0.11 % ID/g
same,Biodistribution in rats: Adrenal glands,[2]; 10 min post injection,1.49 ± 0.82 % ID/g
same,Biodistribution in rats: Blood,[2]; 10 min post injection,0.21 ± 0.00 % ID/g
same,Biodistribution in rats: Brain,[2]; 10 min post injection,0.01 ± 0.00 % ID/g
same,Biodistribution in rats: Heart,[2]; 10 min post injection,2.37 ± 0.33 % ID/g
same,Biodistribution in rats: Intestine,[2]; 10 min post injection,4.36 ± 2.28 % ID/g
same,Biodistribution in rats: Kidneys,[2]; 10 min post injection,6.82 ± 3.62 % ID/g
same,Biodistribution in rats: Liver,[2]; 10 min post injection,3.49 ± 0.09 % ID/g
same,Biodistribution in rats: Lungs,[2]; 10 min post injection,0.67 ± 0.23 % ID/g
same,Biodistribution in rats: Muscle,[2]; 10 min post injection,0.29 ± 0.08 % ID/g
same,Biodistribution in rats: Spleen,[2]; 10 min post injection,0.57 ± 0.22 % ID/g
same,Biodistribution in rats: Submaxillary glands,[2]; 10 min post injection,1.70 ± 0.60 % ID/g
same,Biodistribution in rats: Adrenal glands,[2]; 20 min post injection,1.46 ± 0.15 % ID/g
same,Biodistribution in rats: Blood,[2]; 20 min post injection,0.08 ± 0.02 % ID/g
same,Biodistribution in rats: Brain,[2]; 20 min post injection,0.01 ± 0.00 % ID/g
same,Biodistribution in rats: Heart,[2]; 20 min post injection,2.49 ± 0.31 % ID/g
same,Biodistribution in rats: Intestine,[2]; 20 min post injection,14.47 ± 4.75 % ID/g
same,Biodistribution in rats: Kidneys,[2]; 20 min post injection,5.63 ± 2.05 % ID/g
same,Biodistribution in rats: Liver,[2]; 20 min post injection,1.86 ± 0.47 % ID/g
same,Biodistribution in rats: Lungs,[2]; 20 min post injection,0.43 ± 0.05 % ID/g
same,Biodistribution in rats: Muscle,[2]; 20 min post injection,0.39 ± 0.12 % ID/g
same,Biodistribution in rats: Spleen,[2]; 20 min post injection,0.38 ± 0.04 % ID/g
same,Biodistribution in rats: Submaxillary glands,[2]; 20 min post injection,1.38 ± 0.07 % ID/g
same,Biodistribution in rats: Adrenal glands,[2]; 30 min post injection,1.31 ± 0.19 % ID/g
same,Biodistribution in rats: Blood,[2]; 30 min post injection,0.04 ± 0.00 % ID/g
same,Biodistribution in rats: Brain,[2]; 30 min post injection,0.01 ± 0.00 % ID/g
same,Biodistribution in rats: Heart,[2]; 30 min post injection,2.57 ± 0.06 % ID/g
same,Biodistribution in rats: Intestine,[2]; 30 min post injection,11.78 ± 1.78 % ID/g
same,Biodistribution in rats: Kidneys,[2]; 30 min post injection,4.88 ± 0.56 % ID/g
same,Biodistribution in rats: Liver,[2]; 30 min post injection,1.30 ± 0.71 % ID/g
same,Biodistribution in rats: Lungs,[2]; 30 min post injection,0.41 ± 0.04 % ID/g
same,Biodistribution in rats: Muscle,[2]; 30 min post injection,0.32 ± 0.08 % ID/g
same,Biodistribution in rats: Spleen,[2]; 30 min post injection,0.37 ± 0.00 % ID/g
same,Biodistribution in rats: Submaxillary glands,[2]; 30 min post injection,1.53 ± 0.17 % ID/g
same,Biodistribution in rats: Adrenal glands,[2]; 60 min post injection,1.17 ± 0.17 % ID/g
same,Biodistribution in rats: Blood,[2]; 60 min post injection,0.02 ± 0.01 % ID/g
same,Biodistribution in rats: Brain,[2]; 60 min post injection,0.01 ± 0.00 % ID/g
same,Biodistribution in rats: Heart,[2]; 60 min post injection,2.26 ± 0.60 % ID/g
same,Biodistribution in rats: Intestine,[2]; 60 min post injection,11.05 ± 5.05 % ID/g
same,Biodistribution in rats: Kidneys,[2]; 60 min post injection,3.44 ± 0.76 % ID/g
same,Biodistribution in rats: Liver,[2]; 60 min post injection,0.42 ± 0.23 % ID/g
same,Biodistribution in rats: Lungs,[2]; 60 min post injection,0.27 ± 0.09 % ID/g
same,Biodistribution in rats: Muscle,[2]; 60 min post injection,0.27 ± 0.04 % ID/g
same,Biodistribution in rats: Spleen,[2]; 60 min post injection,0.18 ± 0.10 % ID/g
same,Biodistribution in rats: Submaxillary glands,[2]; 60 min post injection,1.33 ± 0.46 % ID/g
same,Biodistribution in rats: Adrenal glands,[2]; 120 min post injection,1.14 ± 0.15 % ID/g
same,Biodistribution in rats: Blood,[2]; 120 min post injection,0.01 ± 0.00 % ID/g
same,Biodistribution in rats: Brain,[2]; 120 min post injection,0.01 ± 0.00 % ID/g
same,Biodistribution in rats: Heart,[2]; 120 min post injection,2.45 ± 0.41 % ID/g
same,Biodistribution in rats: Intestine,[2]; 120 min post injection,16.10 ± 2.10 % ID/g
same,Biodistribution in rats: Kidneys,[2]; 120 min post injection,3.43 ± 0.38 % ID/g
same,Biodistribution in rats: Liver,[2]; 120 min post injection,0.16 ± 0.04 % ID/g
same,Biodistribution in rats: Lungs,[2]; 120 min post injection,0.20 ± 0.04 % ID/g
same,Biodistribution in rats: Muscle,[2]; 120 min post injection,0.36 ± 0.12 % ID/g
same,Biodistribution in rats: Spleen,[2]; 120 min post injection,0.14 ± 0.03 % ID/g
same,Biodistribution in rats: Submaxillary glands,[2]; 120 min post injection,1.36 ± 0.14 % ID/g
same,Log k′ (partition ratio),[3],3.18
